We go through 1 molecule from patent US20220331247A1, “Polymeric micelle, methods of production and uses thereof” (Association for the Advancement of Tissue Engineering and …, priority 2019, published 2022).

Data set [1] deals with hACs cultured in monolayer. In words: Biological effects of Dex treatments in hACs monoculture. It is filed as cell-based, human. Particulars: Dex 100 WI. As for the experimental part:
(§1) In an embodiment, the biological effects of dexamethasone (Dex) in monocultures and co-culture of hACs and THP-1 were analysed. To compare the biological effects of free Dex and the polymeric micelles encapsulating Dex, monoculture and co-culture systems of hACs and stimulated M1 macrophages were used. Three different conditions were tested: (i) no treatment (Ctr), (ii) treatment with micelles encapsulating Dex (Mic+Dex), and (iii) treatment with free Dex (Dex). The concentration of Dex was […], and in the co-culture system, 50 mU of GR was added.
(§2) The samples were analyzed for (i) cell viability, (ii) cell proliferation, (C) TNF-α concentration, and (D) IL-6 concentration. The alphabet “a” denotes significant difference compared to the hACs Ctr, “b” denotes significant difference compared to the THP-1 Ctr, and “c” denotes significant difference as compared to the co-culture Ctr where p<0.01.

The subject of the next data set is IL-6. The experiment in a line: IL-6 quantified in the medium, co-culture system. It is filed as cell-based, human. As to conditions: untreated maximum about 1.2 μg/mL. The method, then: as §1
TNF-α and IL-6 cytokines (FIGS. 5C and D, respectively) were quantified in the medium. […] This may be explained due to the controlled release of Dex from the polymeric micelles over the time. With regard to IL-6, the establishment of the co-culture system increased IL-6 amount to a maximum of about 1.2 μg/mL. In this case, both the polymeric micelles with encapsulated Dex and free Dex were able to effectively reduce the amount of IL-6 in the medium to about 0.1 μg/mL.
as §2

Molecules are shown by their SMILES.

`C[C@@H]1C[C@H]2[C@@H]3CCC4=CC(=O)C=C[C@]4(C)[C@@]3(F)[C@@H](O)C[C@]2(C)[C@@]1(O)C(=O)CO` [Dex, dexamethasone]: the “hACs' viability and proliferation vs Ctr” value in data set [1] was “significantly reduced”. Besides, the “amount of IL-6 in the medium after treatment” value with IL-6 is on record as “about 0.1 μg/mL”.
